Literature values in PMC2699040 (European Journal of Immunology, 2007).

What was measured:
[1] = test system: CTL line specific for the influenza epitope KTGGAIYKR; conditions: alanine-substituted at all but a single non-MHC anchor position; ref [14]; cited from earlier work
[2] = test system: SC21 peripheral blood lymphocytes; conditions: adapted IFN-γ ELISPOT, directly ex vivo; ref [18]; cited from earlier work

Sequence | Recognition by CTL line [1] | HLA-A68-restricted response / antigenicity [2]
ATAAAIAAR | recognise efficiently | –
FHCQVCFTTKALGISYGRKK [Tat4 peptide] | – | An HLA-A68-restricted response
